Earlier results in paper PMC7935732 (Targeted Oncology, 2021).

What was measured:
CDK 6 = details: compared with abemaciclib; cited from earlier work
CDK 4 = details: compared with abemaciclib; cited from earlier work

Compound: Cc1nc2c(F)cc(-c3nc(Nc4ccc(CN5CCNCC5)cn4)ncc3F)cc2n1C(C)C [M2]
- Inhibitory potency for CDK 6 (CDK 6): comparable inhibitory potencies
- Inhibitory potency for CDK 4 (CDK 4): comparable inhibitory potencies

Compound: CCN1CCN(Cc2ccc(Nc3ncc(F)c(-c4cc(F)c5nc(CO)n(C(C)C)c5c4)n3)nc2)CC1 [M20]
- Inhibitory potency for CDK 6 (CDK 6): comparable inhibitory potencies
- Inhibitory potency for CDK 4 (CDK 4): comparable inhibitory potencies
